Values of other authors as cited in patent publication US12324861B2, “Beaded nonwoven membrane as a drug delivery system” (CEBIOTEX, S.L., priority 2018, dated 2025).

Experiments:
[1] = nude mice
[2] = systemic administration in patients

- conversion to SN-38 [1]: > 70%
- conversion into the active derivative (SN-38) [2]: less than 10%
SMILES: CCc1c2c(nc3ccc(OC(=O)N4CCC(N5CCCCC5)CC4)cc13)-c1cc3c(c(=O)n1C2)COC(=O)[C@]3(O)CC [Irinotecan]
